Data from US7674819B2 (Warner-Lambert Company LLC, priority 2005, dated 2010).
Changes are numbered by the printed parent chain. Read-outs that look alike come from different tables or passages of the source.

How the values were obtained:
androgen receptor = biological target: T1, androgen receptor (Homo sapiens, UniProt P10275); experiment: AR Antagonist Cell Assay (MDA-MB453-MMTV clone 54-19, luciferase reporter); format: cell-based; conditions: inhibition of induction by DHT (final concentration at 100 μM), 17 hr, compound 0.32-1000 nM, mean of multiple tests
T1 sequence (P10275 1-920 Q868H): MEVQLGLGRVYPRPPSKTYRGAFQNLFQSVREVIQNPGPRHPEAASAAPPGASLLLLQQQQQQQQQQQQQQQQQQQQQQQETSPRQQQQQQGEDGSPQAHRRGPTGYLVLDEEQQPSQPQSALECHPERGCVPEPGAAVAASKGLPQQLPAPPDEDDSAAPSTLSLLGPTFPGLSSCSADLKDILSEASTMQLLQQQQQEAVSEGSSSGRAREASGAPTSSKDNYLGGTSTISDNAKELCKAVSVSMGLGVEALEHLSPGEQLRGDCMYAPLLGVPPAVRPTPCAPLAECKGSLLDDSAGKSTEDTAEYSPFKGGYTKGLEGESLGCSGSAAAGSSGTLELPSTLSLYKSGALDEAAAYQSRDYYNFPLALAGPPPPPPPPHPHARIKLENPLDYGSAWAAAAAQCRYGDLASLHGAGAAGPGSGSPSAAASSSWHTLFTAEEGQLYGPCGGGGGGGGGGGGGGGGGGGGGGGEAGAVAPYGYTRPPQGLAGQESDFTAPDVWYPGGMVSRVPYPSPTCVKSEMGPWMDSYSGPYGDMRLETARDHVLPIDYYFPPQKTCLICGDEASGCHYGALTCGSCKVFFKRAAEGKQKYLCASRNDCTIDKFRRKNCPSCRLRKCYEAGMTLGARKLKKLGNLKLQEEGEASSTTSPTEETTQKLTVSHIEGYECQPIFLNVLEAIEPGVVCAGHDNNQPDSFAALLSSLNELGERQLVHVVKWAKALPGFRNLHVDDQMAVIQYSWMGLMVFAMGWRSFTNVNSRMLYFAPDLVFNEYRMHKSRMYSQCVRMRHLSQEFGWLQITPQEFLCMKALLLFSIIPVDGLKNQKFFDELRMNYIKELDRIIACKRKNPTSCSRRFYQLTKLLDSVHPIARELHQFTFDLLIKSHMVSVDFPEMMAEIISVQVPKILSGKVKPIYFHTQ
In short: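 MDA-MB453 breast tumour cells stably carrying an ARE-containing MMTV promoter driving firefly luciferase, plated overnight at 37° C in charcoal-treated serum medium. DHT added (final […]) and incubated 17 hr at 37° C. Luminescence read after adding luciferase buffer; values are means of multiple tests.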

hAR = biological target: T2, hAR (Homo sapiens, UniProt P10275); experiment: Competitive binding of 3H-DHT to baculovirus/Sf9 generated hAR extracts; conditions: one hour at 4° C., mean of multiple tests
T2 sequence (P10275 1-920): T1 sequence (P10275 1-920 Q868H) with H868Q
In short: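 Baculovirus/Sf9-expressed hAR extract incubated with test compound, hydroxylapatite and 1 nM 3H-DHT tracer for 1 h at 4° C, then washed free of unbound tracer. Affinity given as concentration inhibiting half of maximal 3H-DHT binding.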

[1] = concentration at which one half of maximum binding of 1 nM 3H-DHT to hAR is inhibited, read-out: IC50
[2] = IC50, concentration at which one half of maximum binding of 1 nM 3H-DHT to hAR is inhibited

| Structure (SMILES) | IC50 (androgen receptor) [nM] | IC50 (hAR; [1]) [nM] | IC50 (hAR; [2]) [nM] | IC50 (androgen receptor; read-out: IC50) [nM] |
| --- | --- | --- | --- | --- |
| CC1(C)CN(S(=O)(=O)c2ccccc2)C(=O)C1Oc1ccc(C#N)c(C(F)(F)F)c1 (stereo not drawn) [Example 73, 4-(1-Benzenesulfonyl-4,4-dimethyl-2-oxo-pyrrolidin-3-yloxy)-2-trifluoromethyl-benzonitrile] | 49 | 206 | – | – |
| COc1cccc(S(=O)(=O)N2CC(C)(C)C(Oc3ccc(C#N)c(C(F)(F)F)c3)C2=O)c1 (stereo not drawn) [Example 74, 4-[1-(3-Methoxy-benzenesulfonyl)-4,4-dimethyl-2-oxo-pyrrolidin-3-yloxy]-2-trifluoromethyl-benzonitrile] | 96 | 106 | – | – |
| CCCS(=O)(=O)N1CC(C)(C)C(Oc2ccc(C#N)c(C(F)(F)F)c2)C1=O (stereo not drawn) [Example 75, 4-[4,4-Dimethyl-2-oxo-1-(propane-1-sulfonyl)-pyrrolidin-3-yloxy]-2-trifluoromethyl-benzonitrile] | 16 | – | 64 | – |
| CCS(=O)(=O)N1CC(C)(C)C(Oc2ccc(C#N)c(C(F)(F)F)c2)C1=O (stereo not drawn) [Example 78, 4-(1-Ethanesulfonyl-4,4-dimethyl-2-oxo-pyrrolidin-3-yloxy)-2-trifluoromethyl-benzonitrile] | – | 103 | – | 246 |
| CC1(C)CN(S(=O)(=O)C2CC2)C(=O)C1Oc1ccc(C#N)c(C(F)(F)F)c1 (stereo not drawn) [Example 83, 4-(1-Cyclopropanesulfonyl-4,4-dimethyl-2-oxo-pyrrolidin-3-yloxy)-2-trifluoromethyl-benzonitrile] | – | – | 50 | 205 |
| CC1(C)CN(S(=O)(=O)c2ccsc2)C(=O)C1Oc1ccc(C#N)c(C(F)(F)F)c1 (stereo not drawn) [Example 84, 4-[4,4-Dimethyl-2-oxo-1-(thiophene-3-sulfonyl)-pyrrolidin-3-yloxy]-2-trifluoromethyl-benzonitrile] | 55 | – | 85 | – |
| Cc1csc(S(=O)(=O)N2CC(C)(C)C(Oc3ccc(C#N)c(C(F)(F)F)c3)C2=O)c1 (stereo not drawn) [Example 86, 4-[4,4-Dimethyl-1-(4-methyl-thiophene-2-sulfonyl)-2-oxo-pyrrolidin-3-yloxy]-2-trifluoromethyl-benzonitrile] | – | 140 | – | 105 |
| Cc1ccsc1S(=O)(=O)N1CC(C)(C)C(Oc2ccc(C#N)c(C(F)(F)F)c2)C1=O (stereo not drawn) [Example 87, 4-[4,4-Dimethyl-1-(3-methyl-thiophene-2-sulfonyl)-2-oxo-pyrrolidin-3-yloxy]-2-trifluoromethyl-benzonitrile] | – | 115 | – | 502 |
| CC1(C)CN(S(=O)(=O)c2cccc(C#N)c2)C(=O)C1Oc1ccc(C#N)c(C(F)(F)F)c1 (stereo not drawn) [Example 88, 4-[1-(3-Cyano-benzenesulfonyl)-4,4-dimethyl-2-oxo-pyrrolidin-3-yloxy]-2-trifluoromethyl-benzonitrile] | – | 110 | – | 134 |
| CC1(C)CN(S(=O)(=O)c2cccs2)C(=O)C1Oc1ccc(C#N)c(C(F)(F)F)c1 (stereo not drawn) [Example 93, 4-[4,4-Dimethyl-2-oxo-1-(thiophene-2-sulfonyl)-pyrrolidin-3-yloxy]-2-trifluoromethyl-benzonitrile] | – | – | 82 | > 1000 |
| Cc1ccccc1S(=O)(=O)N1CC(C)(C)C(Oc2ccc(C#N)c(C(F)(F)F)c2)C1=O (stereo not drawn) [Example 94, 4-[4,4-Dimethyl-2-oxo-1-(toluene-2-sulfonyl)-pyrrolidin-3-yloxy]-2-trifluoromethyl-benzonitrile] | – | 150 | – | > 1000 |
| CC1(C)CN(S(=O)(=O)c2cccc(O)c2)C(=O)C1Oc1ccc(C#N)c(C(F)(F)F)c1 (stereo not drawn) [Example 95, 4-[1-(3-Hydroxy-benzenesulfonyl)-4,4-dimethyl-2-oxo-pyrrolidin-3-yloxy]-2-trifluoromethyl-benzonitrile] | – | – | 8 | > 1000 |
| CC1(C)CN(C2CCCC2)C(=O)C1Oc1ccc(C#N)c(C(F)(F)F)c1 (stereo not drawn) [Example 98, 4-(1-Cyclopentyl-4,4-dimethyl-2-oxo-pyrrolidin-3-yloxy)-2-trifluoromethyl-benzonitrile] | – | 169 | – | 315 |
| CSCN1CC(C)(C)C(Oc2ccc(C#N)c(C(F)(F)F)c2)C1=O (stereo not drawn) [Example 99, 4-(4,4-Dimethyl-1-methylsulfanylmethyl-2-oxo-pyrrolidin-3-yloxy)-2-trifluoromethyl-benzonitrile] | 36 | 113 | – | – |
| CC1(C)CN(C(=O)Cc2ccccc2)C(=O)C1Oc1ccc(C#N)c(C(F)(F)F)c1 (stereo not drawn) [Example 101, 4-(4,4-Dimethyl-2-oxo-1-phenylacetyl-pyrrolidin-3-yloxy)-2-trifluoromethyl-benzonitrile] | – | 174 | – | 83 |
| CC1(C)CN(C(=O)c2ccc(C#N)cc2)C(=O)C1Oc1ccc(C#N)c(C(F)(F)F)c1 (stereo not drawn) [Example 104, 4-[1-(4-Cyano-benzoyl)-4,4-dimethyl-2-oxo-pyrrolidin-3-yloxy]-2-trifluoromethyl-benzonitrile] | 37 | 248 | – | – |
| CC1(C)CN(C(=O)c2cccc(C#N)c2)C(=O)C1Oc1ccc(C#N)c(C(F)(F)F)c1 (stereo not drawn) [Example 107, 4-[1-(3-Cyano-benzoyl)-4,4-dimethyl-2-oxo-pyrrolidin-3-yloxy]-2-trifluoromethyl-benzonitrile] | – | – | 68 | 653 |
| COc1cc(OC2C(=O)N(C(C)c3ccccc3)CC2(C)C)ccc1C#N (stereo not drawn) [Example 110, 4-[4,4-Dimethyl-2-oxo-1-(1-phenyl-ethyl)-pyrrolidin-3-yloxy]-2-methoxy-benzonitrile] | – | – | 87 | 126 |
| CC1(C)CN(Cc2nnc(-c3ccccc3O)o2)C(=O)C1Oc1ccc(C#N)c(C(F)(F)F)c1 (stereo not drawn) [Example 112, 4-{1-[5-(2-Hydroxy-phenyl)-[1,3,4]oxadiazol-2-ylmethyl]-4,4-dimethyl-2-oxo-pyrrolidin-3-yloxy}-2-trifluoromethyl-benzonitrile] | – | – | 85 | 198 |
| CC1(C)CN(Cc2nnc(-c3cccc(O)c3)o2)C(=O)C1Oc1ccc(C#N)c(C(F)(F)F)c1 (stereo not drawn) [Example 113, 4-{1-[5-(3-Hydroxy-phenyl)-[1,3,4]oxadiazol-2-ylmethyl]-4,4-dimethyl-2-oxo-pyrrolidin-3-yloxy)-2-trifluoromethyl-benzonitrile] | – | 224 | – | 651 |
| CC1(C)CN(Cc2nnc(-c3ccc(O)cc3)o2)C(=O)C1Oc1ccc(C#N)c(C(F)(F)F)c1 (stereo not drawn) [Example 114, 4-{1-[5-(4-Hydroxy-phenyl)-[1,3,4]oxadiazol-2-ylmethyl]-4,4-dimethyl-2-oxo-pyrrolidin-3-yloxy}-2-trifluoromethyl-benzonitrile] | – | – | 41 | 656 |
